Experimental data reported in the NIST ThermoML archive (doi:10.1021/je300652k).
Numbers after ± are expanded uncertainties.

Conditions: Liquid, Pulse-echo method

Structure (SMILES): FC(F)(F)C1(F)OC1(F)F (stereo unspecified) [2,2,3-trifluoro-3-(trifluoromethyl)oxirane]
- speed of sound (253.15 K, 2510 kPa): 571.2 ± 1.8 m/s
- speed of sound (253.15 K, 10040 kPa): 623.9 ± 1.8 m/s
- speed of sound (253.15 K, 25020 kPa): 708 ± 1.7 m/s
- speed of sound (253.15 K, 50030 kPa): 816.7 ± 1.7 m/s
- speed of sound (253.15 K, 75010 kPa): 903.6 ± 1.9 m/s
- speed of sound (253.15 K, 100040 kPa): 977.8 ± 2.1 m/s
- speed of sound (253.15 K, 125040 kPa): 1043.1 ± 2.1 m/s
- speed of sound (253.15 K, 150010 kPa): 1101.9 ± 2.3 m/s
- speed of sound (253.15 K, 175030 kPa): 1155.8 ± 2.5 m/s
- speed of sound (253.15 K, 200030 kPa): 1205.6 ± 2.5 m/s
- speed of sound (253.15 K, 250060 kPa): 1295.5 ± 2.7 m/s
- speed of sound (253.15 K, 300100 kPa): 1376.5 ± 2.9 m/s
- speed of sound (253.15 K, 350000 kPa): 1449.2 ± 2.9 m/s
- speed of sound (253.15 K, 400120 kPa): 1516.7 ± 3.1 m/s
- speed of sound (283.15 K, 2500 kPa): 449.4 ± 1.9 m/s
- speed of sound (283.15 K, 9990 kPa): 517.5 ± 1.8 m/s
- speed of sound (283.15 K, 25000 kPa): 617.4 ± 1.7 m/s
- speed of sound (283.15 K, 49990 kPa): 737.8 ± 1.7 m/s
- speed of sound (283.15 K, 74990 kPa): 831.4 ± 1.7 m/s
- speed of sound (283.15 K, 100050 kPa): 910 ± 1.9 m/s
- speed of sound (283.15 K, 125050 kPa): 978.4 ± 2.1 m/s
- speed of sound (283.15 K, 150010 kPa): 1039.3 ± 2.1 m/s
- speed of sound (283.15 K, 175090 kPa): 1095.2 ± 2.3 m/s
- speed of sound (283.15 K, 200080 kPa): 1146.8 ± 2.3 m/s
- speed of sound (283.15 K, 250010 kPa): 1239.4 ± 2.5 m/s
- speed of sound (283.15 K, 300020 kPa): 1321.5 ± 2.7 m/s
- speed of sound (283.15 K, 350020 kPa): 1396.5 ± 2.9 m/s
- speed of sound (283.15 K, 400120 kPa): 1465.2 ± 3.1 m/s
- speed of sound (313.15 K, 2500 kPa): 326.6 ± 1.3 m/s
- speed of sound (313.15 K, 10010 kPa): 420.6 ± 1.9 m/s
- speed of sound (313.15 K, 25030 kPa): 538.8 ± 1.7 m/s
- speed of sound (313.15 K, 50010 kPa): 670.9 ± 1.7 m/s
- speed of sound (313.15 K, 75040 kPa): 769.9 ± 1.7 m/s
- speed of sound (313.15 K, 100050 kPa): 852 ± 1.9 m/s
- speed of sound (313.15 K, 125040 kPa): 922.8 ± 1.9 m/s
- speed of sound (313.15 K, 150070 kPa): 986.2 ± 2.1 m/s
- speed of sound (313.15 K, 175020 kPa): 1043.4 ± 2.1 m/s
- speed of sound (313.15 K, 200020 kPa): 1095.8 ± 2.3 m/s
- speed of sound (313.15 K, 250020 kPa): 1190.7 ± 2.5 m/s
- speed of sound (313.15 K, 300010 kPa): 1274.7 ± 2.7 m/s
- speed of sound (313.15 K, 350030 kPa): 1350.5 ± 2.9 m/s
- speed of sound (313.15 K, 400060 kPa): 1420.2 ± 3 m/s
- speed of sound (343.15 K, 10040 kPa): 332.6 ± 1 m/s
- speed of sound (343.15 K, 25050 kPa): 471.3 ± 1.8 m/s
- speed of sound (343.15 K, 50030 kPa): 614.1 ± 1.7 m/s
- speed of sound (343.15 K, 75030 kPa): 718 ± 1.7 m/s
- speed of sound (343.15 K, 100050 kPa): 803 ± 1.7 m/s
- speed of sound (343.15 K, 125030 kPa): 875.8 ± 1.9 m/s
- speed of sound (343.15 K, 150030 kPa): 940.5 ± 1.9 m/s
- speed of sound (343.15 K, 175010 kPa): 999.1 ± 2.1 m/s
- speed of sound (343.15 K, 200060 kPa): 1052.9 ± 2.3 m/s
- speed of sound (343.15 K, 250050 kPa): 1149.1 ± 2.3 m/s
- speed of sound (343.15 K, 299960 kPa): 1234.4 ± 2.5 m/s
- speed of sound (343.15 K, 350090 kPa): 1311.5 ± 2.7 m/s
- speed of sound (343.15 K, 400040 kPa): 1382.2 ± 3 m/s
- speed of sound (373.15 K, 10010 kPa): 255 ± 1.1 m/s
- speed of sound (373.15 K, 24970 kPa): 413.4 ± 0.8 m/s
- speed of sound (373.15 K, 50060 kPa): 565.5 ± 1.7 m/s
- speed of sound (373.15 K, 75000 kPa): 673 ± 1.7 m/s
- speed of sound (373.15 K, 100040 kPa): 760 ± 1.7 m/s
- speed of sound (373.15 K, 125040 kPa): 834.6 ± 1.7 m/s
- speed of sound (373.15 K, 150040 kPa): 900.3 ± 1.9 m/s
- speed of sound (373.15 K, 175000 kPa): 959.8 ± 2.1 m/s
- speed of sound (373.15 K, 200070 kPa): 1014.2 ± 2.1 m/s
- speed of sound (373.15 K, 249990 kPa): 1111.6 ± 2.3 m/s
- speed of sound (373.15 K, 300030 kPa): 1198 ± 2.5 m/s
- speed of sound (373.15 K, 350040 kPa): 1275.4 ± 2.7 m/s
- speed of sound (373.15 K, 400010 kPa): 1346.4 ± 2.8 m/s
- speed of sound (403.15 K, 20010 kPa): 322.5 ± 1 m/s
- speed of sound (403.15 K, 25020 kPa): 367.5 ± 1 m/s
- speed of sound (403.15 K, 50020 kPa): 525.9 ± 1.7 m/s
- speed of sound (403.15 K, 75050 kPa): 636.7 ± 1.7 m/s
- speed of sound (403.15 K, 100040 kPa): 725.7 ± 1.7 m/s
- speed of sound (403.15 K, 125010 kPa): 801.5 ± 1.7 m/s
- speed of sound (403.15 K, 150040 kPa): 868.4 ± 1.9 m/s
- speed of sound (403.15 K, 175040 kPa): 928.7 ± 1.9 m/s
- speed of sound (403.15 K, 200050 kPa): 983.8 ± 2.1 m/s
- speed of sound (403.15 K, 250040 kPa): 1082.6 ± 2.3 m/s
- speed of sound (403.15 K, 299980 kPa): 1169.6 ± 2.5 m/s
- speed of sound (403.15 K, 350040 kPa): 1247.9 ± 2.5 m/s
- speed of sound (403.15 K, 399990 kPa): 1319.9 ± 2.8 m/s
